According to ChEMBL document CHEMBL5291721, “A preclinical secondary pharmacology resource illuminates target-adverse drug reaction associations of marketed drugs” (Nat Commun, 2023):

What was measured:
[1] = target: T1, Adenosine receptor A1 (Homo sapiens, UniProt P30542)
T1 sequence (P30542 whole entry): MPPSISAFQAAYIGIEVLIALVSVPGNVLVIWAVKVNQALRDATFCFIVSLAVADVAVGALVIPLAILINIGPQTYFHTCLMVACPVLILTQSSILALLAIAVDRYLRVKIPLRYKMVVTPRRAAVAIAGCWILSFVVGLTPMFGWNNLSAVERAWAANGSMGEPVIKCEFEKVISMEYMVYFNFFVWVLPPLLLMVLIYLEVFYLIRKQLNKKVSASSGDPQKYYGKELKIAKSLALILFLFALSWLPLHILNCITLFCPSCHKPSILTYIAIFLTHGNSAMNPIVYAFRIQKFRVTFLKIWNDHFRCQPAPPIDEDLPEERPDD

[2] = target: T2, Cholecystokinin receptor type A (Homo sapiens, UniProt P32238)
T2 sequence (P32238 whole entry): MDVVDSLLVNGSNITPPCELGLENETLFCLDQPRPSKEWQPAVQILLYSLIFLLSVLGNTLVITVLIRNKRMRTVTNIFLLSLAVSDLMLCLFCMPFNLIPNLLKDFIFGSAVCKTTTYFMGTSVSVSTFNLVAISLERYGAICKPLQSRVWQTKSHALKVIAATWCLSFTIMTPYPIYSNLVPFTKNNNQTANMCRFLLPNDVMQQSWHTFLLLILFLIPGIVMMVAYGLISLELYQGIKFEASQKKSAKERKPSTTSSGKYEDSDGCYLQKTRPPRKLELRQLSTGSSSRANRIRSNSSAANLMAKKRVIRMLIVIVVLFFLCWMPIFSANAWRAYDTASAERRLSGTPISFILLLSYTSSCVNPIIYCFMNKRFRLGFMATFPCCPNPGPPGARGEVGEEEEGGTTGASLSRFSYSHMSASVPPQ

[3] = target: T3, Type-1 angiotensin II receptor (Homo sapiens, UniProt P30556)
T3 sequence (P30556 whole entry): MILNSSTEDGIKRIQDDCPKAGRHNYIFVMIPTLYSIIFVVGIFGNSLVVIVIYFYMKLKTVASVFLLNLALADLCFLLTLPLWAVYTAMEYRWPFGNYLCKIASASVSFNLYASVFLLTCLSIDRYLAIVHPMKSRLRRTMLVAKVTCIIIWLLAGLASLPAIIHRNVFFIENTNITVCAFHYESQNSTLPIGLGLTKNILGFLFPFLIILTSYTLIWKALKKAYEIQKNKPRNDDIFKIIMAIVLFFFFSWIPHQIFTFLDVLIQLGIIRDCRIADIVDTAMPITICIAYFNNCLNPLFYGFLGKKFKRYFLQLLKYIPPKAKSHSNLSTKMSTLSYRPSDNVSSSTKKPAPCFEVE

[4] = target: Gamma-aminobutyric acid receptor subunit alpha-1 (Rattus norvegicus, UniProt P62813)
[5] = target: T4, Adenosine receptor A3 (Homo sapiens, UniProt P0DMS8)
T4 sequence (P0DMS8 whole entry): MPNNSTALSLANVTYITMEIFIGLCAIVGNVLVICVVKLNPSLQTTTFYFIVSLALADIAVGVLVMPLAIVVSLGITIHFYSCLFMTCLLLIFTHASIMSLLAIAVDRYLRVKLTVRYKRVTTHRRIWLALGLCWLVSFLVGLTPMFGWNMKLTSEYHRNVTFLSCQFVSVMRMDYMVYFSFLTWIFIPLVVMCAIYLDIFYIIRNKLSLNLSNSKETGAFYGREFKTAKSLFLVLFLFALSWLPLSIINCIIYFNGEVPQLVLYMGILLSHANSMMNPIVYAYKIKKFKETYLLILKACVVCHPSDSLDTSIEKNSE

[6] = target: Adenosine receptor A2a (Homo sapiens, UniProt P29274)
[7] = target: T5, Alpha-2C adrenergic receptor (Homo sapiens, UniProt P18825); format: functional
T5 sequence (P18825 whole entry): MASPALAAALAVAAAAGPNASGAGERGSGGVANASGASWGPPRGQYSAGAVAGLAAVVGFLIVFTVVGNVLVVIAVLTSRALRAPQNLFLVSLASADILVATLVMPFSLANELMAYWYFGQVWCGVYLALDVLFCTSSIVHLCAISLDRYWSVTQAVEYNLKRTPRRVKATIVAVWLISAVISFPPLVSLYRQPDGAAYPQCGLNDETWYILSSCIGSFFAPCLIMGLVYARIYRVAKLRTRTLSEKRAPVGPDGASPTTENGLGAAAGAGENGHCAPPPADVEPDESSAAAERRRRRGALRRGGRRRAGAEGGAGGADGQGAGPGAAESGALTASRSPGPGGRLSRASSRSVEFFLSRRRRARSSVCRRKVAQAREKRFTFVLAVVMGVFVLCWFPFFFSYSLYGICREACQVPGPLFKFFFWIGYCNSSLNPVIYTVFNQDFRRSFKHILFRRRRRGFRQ

[8] = target: T6, Neuropeptide Y receptor type 1 (Homo sapiens, UniProt P25929)
T6 sequence (P25929 whole entry): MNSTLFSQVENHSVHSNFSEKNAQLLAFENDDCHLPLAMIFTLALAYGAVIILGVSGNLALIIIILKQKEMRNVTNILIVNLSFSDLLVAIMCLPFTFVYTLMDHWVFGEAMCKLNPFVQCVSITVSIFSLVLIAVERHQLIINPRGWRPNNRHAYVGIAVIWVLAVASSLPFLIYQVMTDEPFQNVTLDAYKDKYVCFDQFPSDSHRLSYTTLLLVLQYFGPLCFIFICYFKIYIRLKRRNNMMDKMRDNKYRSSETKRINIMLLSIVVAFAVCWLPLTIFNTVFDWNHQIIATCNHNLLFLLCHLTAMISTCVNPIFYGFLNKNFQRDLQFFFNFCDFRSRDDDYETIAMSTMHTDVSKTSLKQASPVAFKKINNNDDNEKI
Note: assay procedure not described here.

Chain of Gamma-aminobutyric acid receptor subunit alpha-1 (P62813 whole entry): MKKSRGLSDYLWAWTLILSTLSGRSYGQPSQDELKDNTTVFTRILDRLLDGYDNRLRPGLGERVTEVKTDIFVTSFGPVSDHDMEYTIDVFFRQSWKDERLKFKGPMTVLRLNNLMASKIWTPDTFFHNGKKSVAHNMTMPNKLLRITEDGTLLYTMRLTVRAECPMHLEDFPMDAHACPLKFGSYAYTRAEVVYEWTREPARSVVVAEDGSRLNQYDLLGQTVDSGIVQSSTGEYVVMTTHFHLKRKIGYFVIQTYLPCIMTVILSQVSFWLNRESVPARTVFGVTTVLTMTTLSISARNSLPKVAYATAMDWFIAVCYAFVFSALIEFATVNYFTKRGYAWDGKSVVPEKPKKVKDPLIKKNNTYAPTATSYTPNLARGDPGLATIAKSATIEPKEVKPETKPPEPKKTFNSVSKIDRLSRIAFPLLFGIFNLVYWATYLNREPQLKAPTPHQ
Chain of Adenosine receptor A2a (P29274 whole entry): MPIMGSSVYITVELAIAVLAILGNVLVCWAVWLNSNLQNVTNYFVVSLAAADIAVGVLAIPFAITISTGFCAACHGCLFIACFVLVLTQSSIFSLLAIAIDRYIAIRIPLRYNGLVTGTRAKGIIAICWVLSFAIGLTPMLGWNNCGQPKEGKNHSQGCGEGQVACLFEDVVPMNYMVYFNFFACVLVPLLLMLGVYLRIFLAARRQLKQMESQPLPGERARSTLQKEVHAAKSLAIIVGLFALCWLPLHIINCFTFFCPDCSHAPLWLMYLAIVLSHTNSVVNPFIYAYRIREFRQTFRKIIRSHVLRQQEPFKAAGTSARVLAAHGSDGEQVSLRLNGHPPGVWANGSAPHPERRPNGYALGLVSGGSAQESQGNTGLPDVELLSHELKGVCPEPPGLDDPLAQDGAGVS

| SMILES | AC50 [1] | AC50 [2] | AC50 [3] | AC50 [4] | AC50 [5] | AC50 [6] | AC50 [7] | AC50 [8] |
| --- | --- | --- | --- | --- | --- | --- | --- | --- |
| CC(C)CN(C[C@@H](O)[C@H](Cc1ccccc1)NC(=O)O[C@H]1CCOC1)S(=O)(=O)c1ccc(N)cc1 | > 30 µM | > 30 µM | > 10 µM | > 10 µM | > 30 µM | > 30 µM | > 10 µM | > 30 µM |
| CC1=C(CC(=O)O)c2cc(F)ccc2/C1=C\c1ccc([S+](C)[O-])cc1 (configuration not stated) | > 30 µM | > 30 µM | > 30 µM | > 10 µM | > 30 µM | > 30 µM | > 10 µM | > 30 µM |
| Cc1nnc2n1-c1ccc(Cl)cc1C(c1ccccc1)=NC2 [ALPRAZOLAM] | > 30 µM | > 30 µM | > 30 µM | > 10 µM | > 30 µM | > 30 µM | > 10 µM | > 30 µM |
| CNCCc1ccccn1 [BETAHISTINE] | > 30 µM | > 30 µM | > 30 µM | > 30 µM | > 30 µM | > 30 µM | > 30 µM | > 30 µM |
| CC(NC(C)(C)C)C(=O)c1cccc(Cl)c1 (configuration not stated) [BUPROPION] | > 30 µM | > 30 µM | > 30 µM | – | > 30 µM | > 30 µM | > 10 µM | > 30 µM |
| CCCCOC(=O)c1ccc(N)cc1 [BUTAMBEN] | > 30 µM | > 30 µM | > 30 µM | > 30 µM | > 30 µM | > 30 µM | > 30 µM | > 30 µM |
| CN(Cc1ccc(C(C)(C)C)cc1)Cc1cccc2ccccc12 [BUTENAFINE] | > 10 µM | > 10 µM | > 10 µM | > 10 µM | > 10 µM | > 10 µM | > 10 µM | > 10 µM |
| O=C1CN=C(c2ccccc2Cl)c2cc([N+](=O)[O-])ccc2N1 [CLONAZEPAM] | > 30 µM | > 30 µM | > 30 µM | > 10 µM | > 30 µM | > 30 µM | > 10 µM | > 30 µM |
| CC1CC(OC(=O)C(O)c2ccccc2)CC(C)(C)C1 (configuration not stated) [CYCLANDELATE] | > 10 µM | > 10 µM | > 10 µM | > 10 µM | > 10 µM | > 10 µM | > 10 µM | > 10 µM |
| OCCN(CCO)c1nc(N2CCCCC2)c2nc(N(CCO)CCO)nc(N3CCCCC3)c2n1 [DIPYRIDAMOLE] | > 30 µM | > 30 µM | > 30 µM | > 30 µM | 24.7 µM | > 30 µM | > 30 µM | > 30 µM |
| CCc1ccc(C(=O)C(C)CN2CCCCC2)cc1 (configuration not stated) [EPERISONE] | > 30 µM | > 30 µM | > 30 µM | > 30 µM | > 30 µM | > 30 µM | 2.09 µM | > 30 µM |
| CCC1(C)CC(=O)NC1=O (configuration not stated) [ETHOSUXIMIDE] | > 10 µM | > 10 µM | > 10 µM | > 10 µM | > 10 µM | > 10 µM | > 10 µM | > 10 µM |
| CCOC(=O)C1=C(C)NC(C)=C(C(=O)OC)C1c1cccc(Cl)c1Cl (configuration not stated) [FELODIPINE] | > 30 µM | > 30 µM | 55.3 µM | > 10 µM | 7.91 µM | > 30 µM | > 10 µM | > 30 µM |
| CC(=O)OCC(=O)[C@@]1(O)CC[C@H]2[C@@H]3CCC4=CC(=O)CC[C@]4(C)[C@@]3(F)[C@@H](O)C[C@@]21C [FLUDROCORTISONE ACETATE] | > 30 µM | > 30 µM | > 30 µM | > 30 µM | > 30 µM | > 30 µM | > 30 µM | > 30 µM |
| CC(=O)[C@@]1(O)CC[C@H]2[C@@H]3C[C@H](C)C4=CC(=O)C=C[C@]4(C)[C@@]3(F)[C@@H](O)C[C@@]21C [FLUOROMETHOLONE] | > 10 µM | > 10 µM | > 10 µM | > 10 µM | > 10 µM | > 10 µM | > 10 µM | > 10 µM |
| CN1C2CCCC1CC(NC(=O)c1nn(C)c3ccccc13)C2 (configuration not stated) [GRANISETRON] | > 30 µM | > 30 µM | > 30 µM | > 10 µM | > 30 µM | > 30 µM | > 10 µM | > 30 µM |
| N=C(N)NC(=O)Cc1c(Cl)cccc1Cl [GUANFACINE] | > 30 µM | > 30 µM | > 30 µM | > 30 µM | > 30 µM | > 30 µM | – | > 30 µM |
| CC1Cc2ccccc2N1NC(=O)c1ccc(Cl)c(S(N)(=O)=O)c1 (configuration not stated) [INDAPAMIDE] | > 30 µM | > 30 µM | > 30 µM | > 10 µM | > 30 µM | > 30 µM | > 10 µM | > 30 µM |
| CC(=O)N1CCN(c2ccc(OCC3COC(Cn4ccnc4)(c4ccc(Cl)cc4Cl)O3)cc2)CC1 (configuration not stated) [KETOCONAZOLE] | > 30 µM | > 10 µM | > 10 µM | > 10 µM | 17.7 µM | > 30 µM | > 10 µM | > 10 µM |
| CCN(CC)CC(=O)Nc1c(C)cccc1C [LIDOCAINE] | > 30 µM | > 30 µM | > 10 µM | – | > 30 µM | > 30 µM | – | > 30 µM |
| Nc1cc(N2CCCCC2)nc(N)[n+]1[O-] [MINOXIDIL] | > 30 µM | > 30 µM | > 30 µM | > 10 µM | > 30 µM | > 30 µM | > 10 µM | – |
| COc1nc(C)nc(Cl)c1N=C1NCCN1 [MOXONIDINE] | > 30 µM | > 30 µM | > 30 µM | > 30 µM | > 30 µM | > 30 µM | – | > 30 µM |
| CCN(C(C)=O)c1cccc(-c2ccnc3c(C#N)cnn23)c1 [ZALEPLON] | > 30 µM | > 30 µM | > 30 µM | – | > 30 µM | > 30 µM | > 10 µM | > 30 µM |
